From PubChem BioAssay (NCI)
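How tested: cells in 96-well plates exposed to compound for 48 hours at five concentrations. At the GI50, growth is halved. TGI marks complete inhibition of growth.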

Key:
Test in all cases: NCI anticancer screen, dose series, 48 h
OVCAR-3 ovarian = test system: OVCAR-3 ovarian
HCT-15 colon = test system: HCT-15 colon
SK-MEL-5 melanoma = test system: SK-MEL-5 melanoma
HCT-116 colon = test system: HCT-116 colon
OVCAR-5 ovarian = test system: OVCAR-5 ovarian
CCRF-CEM leukemia = test system: CCRF-CEM leukemia
HL-60(TB) leukemia = test system: HL-60(TB) leukemia
DU-145 prostate = test system: DU-145 prostate
MALME-3M melanoma = test system: MALME-3M melanoma
SK-MEL-2 melanoma = test system: SK-MEL-2 melanoma
SF-539 CNS = test system: SF-539 CNS
MDA-MB-435 = test system: MDA-MB-435
CAKI-1 renal = test system: CAKI-1 renal
NCI-H23 lung = test system: NCI-H23 lung
M14 melanoma = test system: M14 melanoma
UO-31 renal = test system: UO-31 renal
A549 NSCLC = test system: A549 NSCLC
U251 CNS = test system: U251 CNS
MDA-MB-231 breast = test system: MDA-MB-231 breast
786-0 renal = test system: 786-0 renal
SW-620 colon = test system: SW-620 colon
RPMI-8226 leukemia = test system: RPMI-8226 leukemia
HOP-92 NSCLC = test system: HOP-92 NSCLC
HS 578T breast = test system: HS 578T breast
SF-295 CNS = test system: SF-295 CNS
UACC-62 melanoma = test system: UACC-62 melanoma
RXF 393 renal = test system: RXF 393 renal

SMILES: COc1ccc(/C=N/NC2=NC3C(S2)N(C)C(=O)N3C)cc1 (centres undefined)
- GI50 (OVCAR-3 ovarian): 2.82 µM
- TGI (OVCAR-3 ovarian): 7.95 µM
- GI50 (HCT-15 colon): 3.48 µM
- TGI (HCT-15 colon): > 100 µM
- GI50 (SK-MEL-5 melanoma): 2.95 µM
- TGI (SK-MEL-5 melanoma): 10.6 µM
- GI50 (HCT-116 colon): 4.67 µM
- TGI (HCT-116 colon): > 100 µM
- GI50 (OVCAR-5 ovarian): 7.96 µM
- TGI (OVCAR-5 ovarian): > 100 µM
- GI50 (CCRF-CEM leukemia): 3.61 µM
- TGI (CCRF-CEM leukemia): > 100 µM
- GI50 (HL-60(TB) leukemia): 2.51 µM
- TGI (HL-60(TB) leukemia): 5.55 µM
- GI50 (DU-145 prostate): 9.89 µM
- TGI (DU-145 prostate): > 100 µM
- GI50 (MALME-3M melanoma): 3.7 µM
- TGI (MALME-3M melanoma): > 100 µM
- GI50 (SK-MEL-2 melanoma): 1.04 µM
- TGI (SK-MEL-2 melanoma): 3.52 µM
- GI50 (SF-539 CNS): 3.03 µM
- TGI (SF-539 CNS): 12.3 µM
- GI50 (MDA-MB-435): 1.6 µM
- TGI (MDA-MB-435): 3.92 µM
- GI50 (CAKI-1 renal): 3.76 µM
- TGI (CAKI-1 renal): > 100 µM
- GI50 (NCI-H23 lung): 5.05 µM
- TGI (NCI-H23 lung): > 100 µM
- GI50 (M14 melanoma): 4 µM
- TGI (M14 melanoma): 64.1 µM
- GI50 (UO-31 renal): 3.16 µM
- TGI (UO-31 renal): > 100 µM
- GI50 (A549 NSCLC): 5.83 µM
- TGI (A549 NSCLC): > 100 µM
- GI50 (U251 CNS): 3.78 µM
- TGI (U251 CNS): > 100 µM
- GI50 (MDA-MB-231 breast): 6.09 µM
- TGI (MDA-MB-231 breast): 45.2 µM
- GI50 (786-0 renal): 4.89 µM
- TGI (786-0 renal): > 100 µM
- GI50 (SW-620 colon): 3.32 µM
- TGI (SW-620 colon): > 100 µM
- GI50 (RPMI-8226 leukemia): 5 µM
- TGI (RPMI-8226 leukemia): > 100 µM
- GI50 (HOP-92 NSCLC): 9.44 µM
- TGI (HOP-92 NSCLC): > 100 µM
- GI50 (HS 578T breast): 2.51 µM
- TGI (HS 578T breast): 7.53 µM
- GI50 (SF-295 CNS): 2.97 µM
- TGI (SF-295 CNS): 12.7 µM
- GI50 (UACC-62 melanoma): 2.97 µM
- TGI (UACC-62 melanoma): 37.1 µM
- GI50 (RXF 393 renal): 1.99 µM
- TGI (RXF 393 renal): 5.05 µM
